Data published in patent US10155001B2, “RAC1 inhibitors for inducing bronchodilation” (INSERM (Institut National de la Sante et de la Recherche …, priority 2013, dated 2018).
“Also recorded” adds a separate entry of the source.

Experiments:
[1] = system: AHR to methacholine in OVA-sensitized mice; assay: Airway hyper-responsiveness to methacholine in OVA model of allergic asthma, plethysmography; settings: for metacholine-induced airway response: summary statement: compared with SM-Rac1-KO mice in the OVA-sensitized model of allergic asthma; for AHR to methacholine: OVA-sensitized mice, nebulized before methacholine challenge, FIG. 6, E (o/o)
Experimental: Analysis of airways responsiveness in vivo: Airway responsiveness was assessed in conscious, unrestrained mice using a barometric, whole-body plethysmography (EMKA Technologies) by recording respiratory pressure curves in response to inhaled methacholine (Sigma) at concentrations of 0-40 mg/ml for 1 min. Airway responsiveness was expressed in enhanced pause (Penh) units. The Penh values measured after stimulation were averaged and expressed as the fold-increase over baseline values. Alternatively, dynamic airway resistance was measured using a Flexivent® apparatus (SCIREQ). In this case, mice were anesthetized by a ketamine/xylazine solution, tracheotomized, paralyzed and immediately intubated, followed by mechanical ventilation. Respiratory frequency was set at 150 breaths/min. Increasing concentrations of methacholine (0-15 mg/mL) were administered via a nebulizer aerosol system (Aeroneb, Aerogen).
Allergic asthma induction: When indicated, asthma was induced in mice by intraperitoneal injections with ovalbumin (OVA) in alum (Sigma) at D0, D14 and D21. Mice were challenged at D27, D28 and D29 through intranasal route with aerosolized OVA (50 μg in phosphate-buffered saline). These OVA-sensitized mice were used as a model of in vivo chronic asthma. Control mice were sensitized with PBS/alum and then were challenged with PBS.

[2] = system: bronchial rings from control and house dust mite (HDM)-sensitized mice; assay: Contractile responses ex vivo of bronchial rings from control and house dust mite-sensitized mice; settings: bronchial rings from control and HDM-sensitized mice pre-treated with inhibitor; FIG. 7
Experimental: (§1) Analysis of airways reactivity ex vivo: Primary bronchi were cut in 2 mm-long rings and mounted on a multichannel isometric myograph (Danish Myo Technology) containing a Krebs-Henseleit solution (118.4 mM NaCl, 4.7 mM KCl, 2 mM CaCl2, 1.2 mM MgSO4, 1.2 mM KH2PO4, 25 mM NaHCO3 and 11 mM glucose). A pre-trension of 0.5 mN was applied and maintained all along the protocol. We constructed cumulative concentration-response curves in response to KCl and methacholine (Sigma). When indicated, we pretreated rings with EHT1864 (Sigma) or NSC23766 (Calbiochem) Rac1 inhibitors at 10 μM, 1 h before contraction. Chambers wire myograph were connected to a digital data recorder (MacLab/4e, AD Instruments) and recordings were analyzed using LabChart v7 software (AD Instruments).
Allergic asthma induction: House dust mite model (HDM) of chronic asthma was used. In this case, mice were sensitized on days D0, D7, D14 and D21 by skin application of 500 μg of total extract of HDM Der f (Stallergenes) in 20 μL of dimethylsulfoxyde (DMSO, Sigma-Aldrich) on the ears. DMSO was used as an irritant able to facilitate the allergen penetration. Intranasal challenges were performed with Der f (250 μg in phosphate-buffered saline 250) on D27 and D34. Mice were sacrificed on D35 for ex vivo analysis.

bronchial rings = assay: Analysis of airways reactivity ex vivo: bronchial rings on isometric myograph; settings: bronchial rings from SM-Rac1-KO mice; FIG. 2, A and B
Experimental: as §1

[3] = system: methacholine-dependent bronchoconstriction; assay: Airways responsiveness in vivo to inhaled methacholine, whole-body plethysmography, control (naive) mice; settings: nebulized 10 min before methacholine challenge, FIG. 3, B and FIG. 6, E (ap/ap)

SMILES	metacholine-induced airway response [1]	methacholine and KCl contractions (bronchial reactivity) [2]	AHR to methacholine [1]	KCl- and methacholine-induced contraction (bronchial rings)	methacholine-dependent bronchoconstriction (airway reactivity, Penh) [3]
O=c1cc(CN2CCOCC2)occ1OCCCCCSc1ccnc2cc(C(F)(F)F)ccc12 [EHT1864]	Same results have been obtained	methacholine and KCl contractions are inhibited in both group of bronchial rings; also recorded: bronchial reactivities of control and HDM sensitized-mice are similar	–	–	–
CCN(CC)CCCC(C)Nc1nc(C)cc(Nc2ccc3nc(C)cc(N)c3c2)n1 (centres unmarked) [NSC23766]	Same results have been obtained	–	almost completely prevented the AHR to methacholine; also recorded: comparable to that of salbutamol treatment	absence of any effect	prevented methacholine-dependent bronchoconstriction (FIG. 3, B) in a dose-dependent manner; also recorded: comparable to that of salbutamol treatment
CC(C)(C)NCC(O)c1ccc(O)c(CO)c1 (centres unmarked) [salbutamol]	–	–	effect of NSC23766 aerosol inhalation was comparable to that of salbutamol treatment	–	efficiency of NSC23766 aerosol inhalation is similar to that of salbutamol; also recorded: effect of NSC23766 aerosol inhalation was comparable to that of salbutamol treatment
